Test systems include CCRF-CEM leukemia; COLO 205 colon; HL-60(TB) leukemia; M14 melanoma; MALME-3M melanoma; PC-3 prostate; SF-295 CNS; SK-MEL-2 melanoma; T-47D breast; UACC-257 melanoma.
Holding throughout (test): inhibition of tumour cell growth, NCI panel, 48 h

Where “and” joins values, the source holds several entries; their conditions need not be identical. Identical values can stand only once.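 Cells were grown in 96-well plates and exposed to each compound for 48 hours at five concentrations; endpoints were interpolated linearly between bracketing concentrations, or set to the highest concentration if not reached. The concentration for 50% growth inhibition is given as GI50. TGI: total growth inhibition.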

In the case of `COC(=O)[C@H](Cc1ccccc1)NC(=O)c1csc([C@@H](C[C@H](C(C)C)N(C)C(=O)[C@@H](NC(=O)[C@H]2CCCN2C)C2CC2)OC(C)=O)n1`, the GI50 was 0.166 µM with CCRF-CEM leukemia; 0.456 µM with COLO 205 colon; 0.204 µM with HL-60(TB) leukemia; 0.281 µM in the assay with M14 melanoma; 5.49 µM with MALME-3M melanoma; 0.572 µM in the assay on PC-3 prostate. The GI50 was 0.254 µM with SF-295 CNS, 0.728 µM in the assay on SK-MEL-2 melanoma, greater than 7.36 µM with T-47D breast and 16.9 µM in the assay with UACC-257 melanoma. The TGI was greater than 33.3 µM in the assay on CCRF-CEM leukemia; 4.29 µM with COLO 205 colon; 1.9 µM in the assay on HL-60(TB) leukemia; greater than 33.3 µM in the assay with M14 melanoma; greater than 33.3 µM in the assay on MALME-3M melanoma; greater than 33.3 µM in the assay with PC-3 prostate. Besides, the TGI with SF-295 CNS, with SK-MEL-2 melanoma, with T-47D breast and in the assay on UACC-257 melanoma was greater than 33.3 µM each time.
Consider `COc1ccc(/C=C(/C(=O)n2cnnn2)c2cc(OC)c(OC)c(OC)c2)cc1`, for which the GI50 in the assay on CCRF-CEM leukemia was 3.44 µM; in the assay on COLO 205 colon, 2.92 µM; with HL-60(TB) leukemia, 2.77 µM; with M14 melanoma, 2.58 µM; in the assay on MALME-3M melanoma, 7.75 µM; in the assay on PC-3 prostate, 4.03 µM. Besides, the GI50 in the assay on SF-295 CNS was 3.24 µM; in the assay on SK-MEL-2 melanoma, 6.64 µM; in the assay on T-47D breast, greater than 100 µM; in the assay on UACC-257 melanoma, greater than 100 µM. For the same compound, the TGI in the assay on CCRF-CEM leukemia is greater than 100 µM; with COLO 205 colon, 7.21 µM; in the assay with HL-60(TB) leukemia, greater than 100 µM; in the assay with M14 melanoma, greater than 100 µM; in the assay on MALME-3M melanoma, greater than 100 µM; in the assay on PC-3 prostate, greater than 100 µM. For the same compound, the TGI in the assay with SF-295 CNS, with SK-MEL-2 melanoma, with T-47D breast and in the assay with UACC-257 melanoma was greater than 100 µM each time.
Consider `CC[C@H](C)[C@H](NC(=O)[C@H]1CCCCN1C)C(=O)N(C)[C@H](C[C@@H](OC(C)=O)c1nc(C(=O)N[C@@H](Cc2ccccc2)C[C@H](C)C(=O)OC)cs1)C(C)C`, for which the GI50 in the assay with CCRF-CEM leukemia is 0.000552 µM and 0.0025 µM; with COLO 205 colon, 0.000208 µM and < 0.0025 µM; with HL-60(TB) leukemia it was 0.000249 µM and < 0.0025 µM; in the assay on M14 melanoma, 0.000331 µM and < 0.0025 µM; in the assay with MALME-3M melanoma it was 0.442 µM; with SK-MEL-2 melanoma, 0.000463 µM and < 0.0025 µM. Besides, the results for the GI50 in the assay with T-47D breast and in the assay with UACC-257 melanoma were 11.8 µM and 8.72 µM, respectively. For the same compound, the TGI in the assay with CCRF-CEM leukemia was 2.5 µM; in the assay with COLO 205 colon, 0.00119 µM and < 0.0025 µM; in the assay with HL-60(TB) leukemia, 0.000743 µM and < 0.0025 µM; in the assay on M14 melanoma, less than 0.0025 µM; in the assay on MALME-3M melanoma it was greater than 25 µM; in the assay with PC-3 prostate, greater than 25 µM. Besides, the TGI in the assay with SF-295 CNS was 0.000762 µM and 0.00468 µM; with SK-MEL-2 melanoma it was less than 0.0025 µM; in the assay with T-47D breast, greater than 25 µM; in the assay on UACC-257 melanoma it was greater than 25 µM.
Turning to `CCc1cccc(CC)c1/C=C/c1cncc(C(=O)NC)c1`, the GI50 is 0.765 µM in the assay with CCRF-CEM leukemia; 13.8 µM with COLO 205 colon; greater than 13.6 µM in the assay with HL-60(TB) leukemia; 6.57 µM with M14 melanoma; 10.9 µM in the assay on MALME-3M melanoma; 13.9 µM in the assay on PC-3 prostate. Moreover, the GI50 was 11.6 µM with SF-295 CNS, 10.9 µM with SK-MEL-2 melanoma, 11.9 µM in the assay on T-47D breast and greater than 13.5 µM in the assay with UACC-257 melanoma. The TGI was greater than 25 µM in the assay on CCRF-CEM leukemia; greater than 25 µM in the assay with COLO 205 colon; greater than 23.8 µM in the assay on HL-60(TB) leukemia; 18.8 µM in the assay with M14 melanoma; greater than 25 µM with MALME-3M melanoma; greater than 25 µM in the assay on PC-3 prostate. The TGI in the assay with SF-295 CNS was greater than 25 µM; with SK-MEL-2 melanoma it was greater than 22.6 µM; in the assay with T-47D breast it was greater than 25 µM; in the assay with UACC-257 melanoma it was greater than 25 µM.
As to `CN(C)CCCC1(c2ccc(F)cc2)OCc2cc(-c3cncc4ccccc34)ccc21` (stereo not drawn), the GI50 with CCRF-CEM leukemia was 3.45 µM; with COLO 205 colon it was 2.07 µM; with HL-60(TB) leukemia, 1.81 µM; in the assay on M14 melanoma it was 1.82 µM; with MALME-3M melanoma, 1.55 µM; in the assay with PC-3 prostate, 3.36 µM. Also, the GI50 was 2.02 µM with SF-295 CNS, 2.14 µM in the assay on SK-MEL-2 melanoma, 2.43 µM with T-47D breast and 2.02 µM in the assay on UACC-257 melanoma. In addition, the TGI in the assay with CCRF-CEM leukemia came out at 11.6 µM; in the assay with COLO 205 colon, 4.72 µM; with HL-60(TB) leukemia it was 4.15 µM; in the assay on M14 melanoma, 3.77 µM; with MALME-3M melanoma, 3.09 µM; in the assay on PC-3 prostate it was 15 µM. Moreover, the TGI turned out to be 4.2 µM in the assay with SF-295 CNS, 4.74 µM with SK-MEL-2 melanoma, 7.28 µM with T-47D breast and 4 µM in the assay on UACC-257 melanoma.
In the case of `COc1ccc(-c2cc(/C=C/C(=O)c3cc(OC)c(OC)c(OC)c3)[nH]n2)cc1OC`, the GI50 in the assay on CCRF-CEM leukemia is 0.342 µM; in the assay on COLO 205 colon, 1.75 µM; in the assay with HL-60(TB) leukemia it was 1.69 µM; in the assay with M14 melanoma, 1.8 µM; in the assay with MALME-3M melanoma it was 2.32 µM; with PC-3 prostate, 1.99 µM. For the same compound, the GI50 with SF-295 CNS was 1.67 µM; with SK-MEL-2 melanoma it was 2.69 µM; in the assay with T-47D breast, 1.01 µM; in the assay on UACC-257 melanoma, 1.79 µM. In addition, the TGI is 3.13 µM with CCRF-CEM leukemia; 3.57 µM with COLO 205 colon; 14.8 µM with HL-60(TB) leukemia; 3.69 µM in the assay on M14 melanoma; 6.19 µM in the assay with MALME-3M melanoma; 10.3 µM in the assay on PC-3 prostate. The TGI in the assay with SF-295 CNS came out at 4.26 µM; in the assay with SK-MEL-2 melanoma, 7.7 µM; in the assay with T-47D breast it was 3.76 µM; in the assay on UACC-257 melanoma it was 3.8 µM.
Consider `CN(C)CCCN1c2ccccc2Sc2ccc(Cl)cc21`, for which the GI50 was 7.38 µM in the assay on CCRF-CEM leukemia; 1.89 µM and 2.85 µM with COLO 205 colon; 4.98 µM and 11.6 µM in the assay with HL-60(TB) leukemia; 2.03 µM and 2.58 µM with M14 melanoma; 14.9 µM and 3.04 µM with MALME-3M melanoma; 11.9 µM and 4.52 µM in the assay on PC-3 prostate. In addition, the GI50 with SF-295 CNS was 4.13 µM and 8.91 µM; with SK-MEL-2 melanoma it was 3.81 µM and 5.52 µM; with T-47D breast, 5.92 µM and 8.6 µM; with UACC-257 melanoma, 2.08 µM and 3.24 µM. Further, the TGI was 24.3 µM in the assay with CCRF-CEM leukemia; 3.77 µM and 7.68 µM in the assay on COLO 205 colon; 20.7 µM and 28.6 µM in the assay on HL-60(TB) leukemia; 3.89 µM and 6.18 µM with M14 melanoma; 31.5 µM and 15.8 µM in the assay with MALME-3M melanoma; 26.3 µM and 17.3 µM in the assay on PC-3 prostate. Further, the TGI was 17.3 µM and 22.9 µM in the assay with SF-295 CNS; 13.4 µM and 19.5 µM in the assay with SK-MEL-2 melanoma; 20 µM and 23.4 µM with T-47D breast; 4.33 µM and 13 µM in the assay with UACC-257 melanoma.

The values are drawn from PubChem BioAssay (NCI).
